Positions count from the first letter of the chain named.
Assays:
Format in all cases: cell-based
[1] = biological target: T1, FZD6 (HiBiT-FZD6; FZD6-Nluc) (Homo sapiens, UniProt O60353); test: NanoBiT/BRET saturation binding in live cells; conditions: HBSS, 90 min, 37 °C; cell-surface receptor; upper 7TM site; labelled compound; error SD
T1 construct: full-length receptor; expressed in deltaSMO HEK293A cells; UniProt id given for the homology model
T1 sequence (O60353 19-706): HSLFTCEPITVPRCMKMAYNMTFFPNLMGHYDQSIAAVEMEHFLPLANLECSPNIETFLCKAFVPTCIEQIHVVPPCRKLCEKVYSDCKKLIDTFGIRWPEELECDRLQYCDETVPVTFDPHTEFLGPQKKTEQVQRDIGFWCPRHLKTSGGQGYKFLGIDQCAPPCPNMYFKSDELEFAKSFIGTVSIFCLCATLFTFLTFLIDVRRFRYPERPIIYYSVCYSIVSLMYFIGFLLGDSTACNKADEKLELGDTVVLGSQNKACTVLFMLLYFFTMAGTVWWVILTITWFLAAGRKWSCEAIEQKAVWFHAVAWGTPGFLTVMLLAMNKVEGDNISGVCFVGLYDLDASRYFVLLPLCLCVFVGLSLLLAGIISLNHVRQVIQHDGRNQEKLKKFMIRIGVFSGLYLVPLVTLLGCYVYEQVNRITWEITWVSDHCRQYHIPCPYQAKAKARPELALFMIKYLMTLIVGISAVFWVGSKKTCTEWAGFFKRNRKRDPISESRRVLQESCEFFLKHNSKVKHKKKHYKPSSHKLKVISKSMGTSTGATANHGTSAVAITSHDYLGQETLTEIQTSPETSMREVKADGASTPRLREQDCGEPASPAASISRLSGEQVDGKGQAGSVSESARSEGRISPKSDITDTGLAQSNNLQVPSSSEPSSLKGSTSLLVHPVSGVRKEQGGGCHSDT

[2] = biological target: T2, SMO (HiBiT-SMO; SMO-Nluc) (Mus musculus, UniProt P56726, F466P); test: NanoBiT/BRET saturation binding in live cells; conditions: HBSS, 90 min, 37 °C; cell-surface receptor; labelled compound; error SD
T2 construct: full-length receptor; C-terminal Nluc (SMO-Nluc) for miniGsi recruitment; expressed in deltaSMO HEK293A cells
T2 sequence (P56726 33-793 F466P): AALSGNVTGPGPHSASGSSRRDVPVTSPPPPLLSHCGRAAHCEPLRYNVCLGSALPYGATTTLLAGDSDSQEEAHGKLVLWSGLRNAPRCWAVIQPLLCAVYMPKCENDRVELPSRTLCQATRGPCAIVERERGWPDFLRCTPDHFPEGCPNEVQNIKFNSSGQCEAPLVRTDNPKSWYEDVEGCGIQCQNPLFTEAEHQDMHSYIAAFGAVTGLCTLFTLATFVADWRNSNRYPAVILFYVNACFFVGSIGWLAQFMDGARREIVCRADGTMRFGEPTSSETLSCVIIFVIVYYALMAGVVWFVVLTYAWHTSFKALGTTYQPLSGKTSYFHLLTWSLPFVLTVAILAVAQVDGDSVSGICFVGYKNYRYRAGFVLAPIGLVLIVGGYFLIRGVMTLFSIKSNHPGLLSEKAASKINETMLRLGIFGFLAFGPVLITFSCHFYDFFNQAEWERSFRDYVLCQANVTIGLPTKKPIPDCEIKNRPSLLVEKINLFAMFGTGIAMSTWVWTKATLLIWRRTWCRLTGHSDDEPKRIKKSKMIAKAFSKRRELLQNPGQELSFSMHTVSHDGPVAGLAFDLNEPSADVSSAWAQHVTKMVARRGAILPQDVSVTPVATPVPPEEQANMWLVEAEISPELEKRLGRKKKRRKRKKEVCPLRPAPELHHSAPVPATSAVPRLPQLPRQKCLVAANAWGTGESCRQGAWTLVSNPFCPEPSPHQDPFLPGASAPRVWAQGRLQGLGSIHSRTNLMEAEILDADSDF

[3] = biological target: T3, FZD6 (HiBiT-FZD6; FZD6-Nluc) (Homo sapiens, UniProt O60353, P427F); test: NanoBiT/BRET saturation binding in live cells; conditions: HBSS, 90 min, 37 °C; cell-surface receptor; upper 7TM site; labelled compound; error SD
T3 construct: full-length receptor; expressed in deltaSMO HEK293A cells; UniProt id given for the homology model
T3 sequence (O60353 19-706 P427F): T1 sequence (O60353 19-706) with P409F

[4] = biological target: T4, SMO (HiBiT-SMO; SMO-Nluc) (Mus musculus, UniProt P56726); test: NanoBiT/BRET saturation binding in live cells; conditions: HBSS, 90 min, 37 °C; cell-surface receptor; monophasic, lower 7TM site; labelled compound; error SD
T4 construct: full-length receptor; C-terminal Nluc (SMO-Nluc) for miniGsi recruitment; expressed in deltaSMO HEK293A cells
T4 sequence (P56726 33-793): as the sequence (P56726 33-793 F466P) above, with P434F counted along it

[5] = biological target: T1, FZD6 (HiBiT-FZD6; FZD6-Nluc); test: BRET Venus-mGsi recruitment to receptor-Nluc in deltaSMO HEK293A cells; conditions: agonist; bell-shaped concentration response; read 5 min after addition

SMILES	pKd [1]	pKd [2]	pKd [3]	pKd [4]	BRET Venus-mGsi recruitment to receptor-Nluc in deltaSMO HEK293A cells [5]
CC1=C2CC3C(CC=C4C[C@@H](O)CCC43C)C2CCC12O[C@@H]1CC(C)CN(CCNC(=O)CCCCCNC(=O)CCC3=[N+]4C(=Cc5c(C)cc(C)n5[B-]4(F)F)C=C3)C1C2C (some centres unmarked) [BODIPY-cyclopamine]	6.45 ± 0.23 -log10 M	5.44 ± 1.02 -log10 M	6.28 ± 0.20 -log10 M	6.87 ± 0.13 -log10 M	–
CN[C@H]1CC[C@H](N(Cc2cccc(-c3ccncc3)c2)C(=O)c2sc3ccccc3c2Cl)CC1 [SAG1.3]	–	–	–	–	SAG1.3-induced mGsi recruitment to SMO, while that to FZD6 remained unaffected
